Measured values: PubChem BioAssay AID1645862 (Buhrlage Lab, Dana-Farber Cancer Institute and Novartis …, 2021)
Activity calls are given as the source filed them. The rule behind the calls is not given here.

Biological target: Ubiquitin carboxyl-terminal hydrolase 8 (Homo sapiens) (UniProt P40818)
Assay: Ubiquitin-specific protease 8 inhibitors, concentration-effect, biochemical, validation of initial actives (AID 1645862);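 note: potency reflects inhibition of USP8 cleavage of a ubiquitin rhodamine substrate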
Settings: recombinant USP8 deubiquitinase activity assay

Ubiquitin carboxyl-terminal hydrolase 8 (Homo sapiens), sequence (P40818 whole entry, looked up): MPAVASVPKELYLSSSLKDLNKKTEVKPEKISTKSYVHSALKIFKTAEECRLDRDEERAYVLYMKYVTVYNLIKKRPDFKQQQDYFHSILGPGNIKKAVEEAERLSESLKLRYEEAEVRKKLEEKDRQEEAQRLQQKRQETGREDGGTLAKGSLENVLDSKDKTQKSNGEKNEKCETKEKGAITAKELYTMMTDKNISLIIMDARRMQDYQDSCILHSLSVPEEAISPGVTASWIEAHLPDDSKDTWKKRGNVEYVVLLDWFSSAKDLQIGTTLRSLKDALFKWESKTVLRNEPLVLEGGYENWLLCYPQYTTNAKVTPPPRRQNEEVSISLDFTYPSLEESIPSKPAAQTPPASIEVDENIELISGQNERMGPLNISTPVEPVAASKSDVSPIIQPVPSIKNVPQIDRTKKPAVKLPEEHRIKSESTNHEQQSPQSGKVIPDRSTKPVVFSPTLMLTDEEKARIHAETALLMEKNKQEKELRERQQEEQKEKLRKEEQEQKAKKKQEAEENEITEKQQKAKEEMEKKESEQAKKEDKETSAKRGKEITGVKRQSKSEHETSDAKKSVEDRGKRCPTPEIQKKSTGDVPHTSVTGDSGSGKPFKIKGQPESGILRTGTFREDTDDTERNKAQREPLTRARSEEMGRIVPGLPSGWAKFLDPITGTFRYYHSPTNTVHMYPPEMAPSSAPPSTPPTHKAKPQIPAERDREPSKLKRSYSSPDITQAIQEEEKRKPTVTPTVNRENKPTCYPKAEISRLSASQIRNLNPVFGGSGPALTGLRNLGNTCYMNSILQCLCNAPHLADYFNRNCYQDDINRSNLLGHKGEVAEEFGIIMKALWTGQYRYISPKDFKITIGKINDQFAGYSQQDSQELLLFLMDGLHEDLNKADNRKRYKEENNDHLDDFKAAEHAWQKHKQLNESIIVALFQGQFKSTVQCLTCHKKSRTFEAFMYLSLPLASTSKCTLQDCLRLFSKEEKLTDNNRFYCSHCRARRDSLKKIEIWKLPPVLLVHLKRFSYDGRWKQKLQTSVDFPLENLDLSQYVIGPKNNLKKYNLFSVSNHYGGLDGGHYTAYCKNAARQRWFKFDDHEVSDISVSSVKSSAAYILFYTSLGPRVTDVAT

IC50 | Compound
> 40 µM (inactive) | Cc1ccc(-n2cc(C(=O)NCCCc3ccccc3)nn2)cc1
> 40 µM (inactive) | Cc1cc(CN2CCCCC2c2cc(=O)n3ccnc3[nH]2)no1 (stereo not given)
> 40 µM (inactive) | COc1ccc(Cn2nc(C)cc2NC(=O)c2cccc(F)c2)cc1OC
> 40 µM (inactive) | Cc1cc(C)c(O)c(-c2cc(C(=O)Nc3ccccc3Cl)[nH]n2)c1
> 40 µM (inactive) | COc1ccc2cc(C(=O)N3CCC(C(C)C(=O)NCc4cccc(F)c4)CC3)[nH]c2c1 (stereo not given)
> 40 µM (inactive) | COCC(=O)N1CCC(n2c(C3CC3)nc3sc(C)c(C)c3c2=O)CC1
> 40 µM (inactive) | O=C(COC(=O)c1cccc([N+](=O)[O-])c1)Nc1cccc(Oc2ccccc2)c1
28.6 µM | CC(C)c1ccc(NC(=O)c2cc(-c3cccnc3)n[nH]2)cc1
> 40 µM (inactive) | Cc1ccc(NC(=O)Cn2cncc(-c3nc(-c4ccccc4)cs3)c2=O)cc1F
> 40 µM (inactive) | O=C1CC(c2ccccc2)n2ncnc2N1 (stereo not given)
> 40 µM (inactive) | O=C(c1cccnc1)N1CCCC(Cc2cc(-c3ncc[nH]3)ncn2)C1 (stereo not given)
> 40 µM (inactive) | CCOc1ccc(-c2nnc(-c3cnc4onc(C5CCCC5)c4c3)o2)cc1
> 40 µM (inactive) | Cc1ccccc1-c1nnc2sc(COc3ccc(Cl)cc3)nn12
> 40 µM (inactive) | O=C(/C=C/c1ccco1)N1CCC(Cn2cccn2)CC1
> 40 µM (inactive) | O=C(Cn1ccc2ccn(Cc3ccccc3)c2c1=O)Nc1ccccc1Cl
> 40 µM (inactive) | CC[C@@H](C(=O)[C@@H](C)[C@@H](O)[C@H](C)CCc1ccc(C)c(O)c1C(=O)O)[C@@H]1O[C@](CC)([C@H]2CC[C@](O)(CC)[C@H](C)O2)C[C@@H]1C
> 40 µM (inactive) | COc1ccc(C(=O)Nc2nc(-c3ccc4c(c3)NC(=O)CO4)c(C)s2)cc1OC
32.6 µM | NC(=O)c1ccccc1NC(=O)COc1ccc2c(c1)oc(=O)c1ccccc12
> 40 µM (inactive) | O=C(NCCc1nc2ccccc2n1CCCOc1ccccc1Cl)C1CCCCC1
> 40 µM (inactive) | COc1cc(NC(=O)c2ccc3c(c2)OCO3)ccc1-c1cc2ccccc2oc1=O
8.85 µM | Oc1cccc2nc3c(O)cccc3nc12
> 40 µM (inactive) | Cn1cc2cccc(NC(=O)c3ccc(F)cc3)c2n1
> 40 µM (inactive) | Cc1ccc(-c2nnc3ccc(SCC(=O)N4CCCc5ccccc54)nn23)cc1

IC50 | Compound
> 40 µM (inactive) | CCc1nnc(C(=O)Nc2ccc(C(=O)NCc3ccc(OC(C)C)cc3)cc2)s1
> 40 µM (inactive) | CC[C@H](C)[C@H](NC(=O)[C@H]([C@@H](C)CC)N(C)C(C)=O)C(=O)N[C@H](C(=O)N[C@@H](CC(C)C)C(=O)C1(C)CO1)[C@@H](C)O (stereo not given in full)
> 40 µM (inactive) | CC1=C(C)C(c2c(-c3ccc(C)cc3)[nH]c3ccccc23)N(C(C)(C)C)C1=O (stereo not given)
39.2 µM | Cc1ccc(NC(=O)Nc2ccc(C)n(CC(=O)Nc3ccc(C)c(C)c3)c2=O)cc1
> 40 µM (inactive) | COc1cc(OC)c(NC(=O)Cn2c(=O)n(Cc3ccccc3Cl)c(=O)c3cc(OC)c(OC)cc32)cc1Cl
> 40 µM (inactive) | O=C(Nc1ccccc1C(=O)NC1CCSC1)c1ccc([N+](=O)[O-])cc1 (stereo not given)
> 40 µM (inactive) | CCOc1ccc(S(=O)(=O)Nc2ccc[nH]c2=O)cc1
> 40 µM (inactive) | CCOc1ccc(NC(=O)Cn2cc(C(=O)c3ccc(Cl)cc3)c(=O)c3cc(OC)ccc32)cc1
4.52 µM | Cn1c2ccccc2c(=O)c2c(=O)n(-c3cccc(Cl)c3)c(-c3cccs3)nc21
> 40 µM (inactive) | O=C(Cc1ccc(-n2c(=O)c3ccccc3n(CC(=O)Nc3ccc(Cl)cc3Cl)c2=O)cc1)NCc1ccco1
> 40 µM (inactive) | COc1ccc(S(=O)(=O)NCc2ccc3c(c2)cc(C)n3C)cc1
> 40 µM (inactive) | O=C(CCCCCn1c(=O)c2sccc2n(CC(=O)c2ccc(F)cc2)c1=O)NCc1ccccc1Cl
> 40 µM (inactive) | COc1ccc(C2NC(=O)NC(C)=C2C(=O)OCC2CCCCC2)cc1OC (stereo not given)
> 40 µM (inactive) | Cc1ccccc1-n1ccc2nc(N3CCCC3)ncc2c1=O
> 40 µM (inactive) | N#C/C(=C\c1ccccc1F)c1nnc(N)s1
34 µM | O=C(Nc1ccccc1)[C@@H]1[C@@H]2C(=O)N(c3ccc([N+](=O)[O-])cc3)C(=O)[C@@H]2[C@H]2c3ccccc3C=CN12
> 40 µM (inactive) | COc1ccc(N2CC(c3nnc(NC(=O)CCc4ccccc4)s3)CC2=O)cc1 (stereo not given)
18.9 µM | Cc1ccc(S(=O)(=O)Nc2ccccc2C(=O)Nc2nc3ccc(Br)cc3s2)cc1
> 40 µM (inactive) | O=C(Cn1c(CNC(=O)c2ccccc2)nc2ccccc21)Nc1ccc(F)cc1
> 40 µM (inactive) | Fc1cccc(Nc2nc(-c3ccccn3)nc3ccccc23)c1
7.16 µM | Cc1ccc(-n2cc(-c3noc(C(=O)Nc4ccc(F)cc4C)n3)nn2)cc1
> 40 µM (inactive) | CCCn1cc(-c2nc(-c3ccccn3)no2)c(=O)c2ccccc21
> 40 µM (inactive) | CCn1cc2c(n1)c(=O)n(Cc1ccccc1)c(=O)n2CC(=O)Nc1ccc(OC)cc1

IC50 | Compound
> 40 µM (inactive) | O=C(CCn1c(=O)c2sccc2n(CC(=O)OCc2ccccc2)c1=O)NCc1ccc2c(c1)OCO2
> 40 µM (inactive) | CCOC(=O)c1ccc(NC(=O)Cn2c(=O)n(CC(=O)NCc3ccco3)c(=O)c3ccccc32)cc1
> 40 µM (inactive) | Cc1ncc(CO)c2c1Oc1nc(-c3cccc(Cl)c3)nc(SCC(=O)N3CCCCC3)c1C2
31.3 µM | COc1ccc(-c2c(NC(=O)C3COc4ccccc4O3)n[nH]c2C)cc1OC (stereo not given)
> 40 µM (inactive) | Cc1ccc(C(=O)NCc2ccc(C(=O)Nc3ccc(Cl)cc3)o2)cc1
> 40 µM (inactive) | CCOc1ccc(NC(=O)Cn2c(-c3ccccc3)cc(C(C)=O)c2C)cc1
> 40 µM (inactive) | CCNS(=O)(=O)c1ccc(-c2ccc(-n3cnnn3)cc2)cc1
> 40 µM (inactive) | COc1cc2c(oc(=O)c3cc(C)cc(OC)c32)c2c([C@@H]3OC(C)[C@@H](O)[C@@](C)(O)C3O)ccc(O)c12 (stereo not given in full)
> 40 µM (inactive) | COc1ccc(Oc2cc3n(c(=O)n2)CCc2cc(OC)c(OC)cc2-3)cc1
> 40 µM (inactive) | CC1CCc2c(sc(NC(=O)c3cccc(S(C)(=O)=O)c3)c2C(N)=O)C1 (stereo not given)
> 40 µM (inactive) | Cc1ccc(CNC(=O)Cn2c(=O)n(CCCC(=O)NCc3ccc(F)cc3)c(=O)c3ccccc32)cc1
> 40 µM (inactive) | COCCCNC(=O)c1ccc(Cn2c(=O)c3ccccc3n(CC(=O)Nc3ccc(OC)cc3)c2=O)cc1
> 40 µM (inactive) | COc1cccc(-c2cncc(C3CCN(S(=O)(=O)N(C)C)CC3)n2)c1
0.722 µM | CCc1[nH]c(=O)cc2cc(OC)c(OC)cc12
> 40 µM (inactive) | O=C(Nc1nnc(-c2cccc([N+](=O)[O-])c2)o1)C1CCN(S(=O)(=O)c2ccc3c(c2)CCC3)CC1
> 40 µM (inactive) | O=C(Cn1cnc(-c2ccccc2)cc1=O)Nc1ccc(Oc2ccccc2)cc1
> 40 µM (inactive) | CCOc1ccc(-n2ccnc(SCC(=O)Nc3ccccc3F)c2=O)cc1
33.6 µM | O=C(Nc1cc(F)c2nc(N3CCOCC3)ccc2c1)C1CC1
25.6 µM | O=c1c(S(=O)(=O)c2cc(F)cc(F)c2)c[nH]c2cc(Cl)ccc12
> 40 µM (inactive) | CSc1cccc(NC(=O)c2cc(-c3cccnc3)n[nH]2)c1
8.03 µM | COc1ccc(-c2ccc3cc(C(=O)O)ccc3c2)cc1C12CC3CC(CC(C3)C1)C2
> 40 µM (inactive) | CCOc1ccc(CCNC(=O)Cn2c(-c3ccc(F)cc3)cc(C(C)=O)c2C)cc1OCC
> 40 µM (inactive) | Cc1nc(-c2ccccc2)sc1-c1nc(-c2ccccc2)ncc1S(=O)(=O)c1ccccc1

IC50 | Compound
> 40 µM (inactive) | Cc1ccc(NCc2cc3c(-c4cccc(F)c4)nn(-c4ccccc4)c3[nH]c2=O)cc1C
> 40 µM (inactive) | COc1ccc(NC(=O)Cn2cc(C(=O)c3ccc(F)cc3)c(=O)c3cc(C)ccc32)cc1OC
> 40 µM (inactive) | O=C(Nc1cccc(-c2nc3ncccc3o2)c1)c1ccc([N+](=O)[O-])cc1
> 40 µM (inactive) | O=C(c1[nH]nc2c1COc1ccccc1-2)N1CCN(c2ccccn2)CC1
> 40 µM (inactive) | CC(C)(C)C(=O)Nc1ccc(C(=O)Nc2cccc(-c3nnc(-c4ccccc4)o3)c2)cc1
> 40 µM (inactive) | COc1ccc2c(c1)CCc1c-2nc2ccccc2c1N1CCOCC1
> 40 µM (inactive) | COc1cccc(NC(=O)CCc2nnc3n(CCCOC(C)C)c(=O)c4ccccc4n23)c1
> 40 µM (inactive) | O=C(Cn1c(=O)n(CC2CCC(C(=O)NC3CCCC3)CC2)c(=O)c2ccccc21)NCCC1=CCCCC1 (stereo not given)
> 40 µM (inactive) | Cc1ccc(S(=O)(=O)Nc2nc(-c3ccc4c(c3)NC(=O)C(C)O4)c(C)s2)cc1 (stereo not given)
> 40 µM (inactive) | Cc1ccc(NC(=O)Nc2nnc(CC(=O)NCc3ccccc3)s2)cc1F
27.3 µM | Cc1ccc(C)c(NC(=O)Cn2cc(C(=O)C3CC3)c3ccccc32)c1
> 40 µM (inactive) | O=C(c1cc2occc2c(Nc2ccc(F)cc2)n1)N1CCN(c2ccccc2)CC1
> 40 µM (inactive) | O=C(COc1ccc(C2CCCCC2)cc1)Nc1ccc(-c2nn3cnnc3s2)cc1
> 40 µM (inactive) | O=C(CC1C(=O)N(C2CCCC2)c2nc3ccccc3n21)Nc1ccccc1 (stereo not given)
> 40 µM (inactive) | COc1ccc(-c2nc3n(n2)C(CC(=O)Nc2cccc4ccccc24)C(=O)N3)cc1 (stereo not given)
19.5 µM | CSc1ccc(CNC(=O)Cn2nc(C)c3c(C)n(-c4ccccc4)nc3c2=O)cc1
> 40 µM (inactive) | CNC(=O)Cc1ccc(NC(=O)/C=C/c2cn(-c3ccccc3)nc2-c2ccc(F)cc2)cc1
> 40 µM (inactive) | Cc1cccc(NC(=O)CCCc2nnc3c(=O)n(-c4cccc(F)c4)ccn23)c1
> 40 µM (inactive) | COc1ccc(NC(=O)c2nnc(C(=O)NCc3ccccc3F)s2)cc1
> 40 µM (inactive) | Cc1ccc(NC(=O)Nc2nnc(CC(=O)NCc3ccccc3)s2)c(Cl)c1

Compound | IC50
CC1Oc2cc3c(-c4c(O)cc(O)c5c(O)c6c(cc45)OC(C)C(C)C6=O)c(O)cc(O)c3c(O)c2C(=O)C1C (stereo not given) | > 40 µM (inactive)
